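Compound exposure: 48 hours, 5 concentrations, 96-well plates. GI50 is the concentration that inhibits growth by half.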 The source made the active and inactive calls. Cut-off read from the data, not from the text of the source: active = GI50 up to about 1.1 µM and inactive = higher.
Key:
Experiment in all cases: NCI tumour cell line growth inhibition, 48 h
NCI-H460 = test system: NCI-H460
SF-268 = test system: SF-268
OVCAR-4 = test system: OVCAR-4
NCI-H522 = test system: NCI-H522
HCC 2998 = test system: HCC 2998
RPMI-8226 = test system: RPMI-8226
Malme-3M = test system: Malme-3M
T47D = test system: T47D
EKVX = test system: EKVX
MOLT-4 = test system: MOLT-4
OVCAR-5 = test system: OVCAR-5
MDA-N = test system: MDA-N
BT-549 = test system: BT-549
UACC-257 = test system: UACC-257
SR = test system: SR
HT-29 = test system: HT-29
MCF7 = test system: MCF7
A549 = test system: A549
CAKI-1 = test system: CAKI-1
NCI-H23 = test system: NCI-H23
LOX IMVI = test system: LOX IMVI
NCI/ADR-RES = test system: NCI/ADR-RES
HCT-15 = test system: HCT-15
MDA-MB-435 = test system: MDA-MB-435
DU-145 = test system: DU-145
TK-10 = test system: TK-10
SN12C = test system: SN12C
UACC-62 = test system: UACC-62
Hs-578T = test system: Hs-578T
KM12 = test system: KM12
SNB-75 = test system: SNB-75
786-0 = test system: 786-0
SK-MEL-2 = test system: SK-MEL-2
SK-OV-3 = test system: SK-OV-3
RXF 393 = test system: RXF 393
HCT-116 = test system: HCT-116
PC-3 = test system: PC-3
UO-31 = test system: UO-31
SK-MEL-28 = test system: SK-MEL-28
M14 = test system: M14
A498 = test system: A498
ACHN = test system: ACHN
MDA-MB-231 = test system: MDA-MB-231
HOP-92 = test system: HOP-92
HOP-62 = test system: HOP-62
U-251 = test system: U-251
SF-295 = test system: SF-295
K562 = test system: K562
SW-620 = test system: SW-620
SNB-19 = test system: SNB-19
OVCAR-3 = test system: OVCAR-3
OVCAR-8 = test system: OVCAR-8
IGROV-1 = test system: IGROV-1
SK-MEL-5 = test system: SK-MEL-5
NCI-H226 = test system: NCI-H226
HL-60 = test system: HL-60
COLO 205 = test system: COLO 205
CCRF-CEM = test system: CCRF-CEM
SF-539 = test system: SF-539

With `CCC(=O)Nc1ncnc2ncn(C(=O)CC)c12` the GI50 (NCI-H460) was > 100 µM (inactive), the GI50 (SF-268) was > 100 µM (inactive) and the GI50 (OVCAR-4) was > 100 µM (inactive). The GI50 (NCI-H522) was > 100 µM (inactive), the GI50 (HCC 2998) was > 100 µM (inactive) and the GI50 (RPMI-8226) was > 100 µM (inactive). The GI50 (Malme-3M) was > 100 µM (inactive), the GI50 (T47D) was > 100 µM (inactive) and the GI50 (EKVX) was > 100 µM (inactive). The GI50 (MOLT-4) was > 100 µM (inactive), the GI50 (OVCAR-5) was > 100 µM (inactive) and the GI50 (MDA-N) was > 100 µM (inactive). For the same compound, the GI50 (BT-549) was > 100 µM (inactive), the GI50 (UACC-257) was > 100 µM (inactive) and the GI50 (SR) was > 100 µM (inactive). The GI50 (HT-29) was > 100 µM (inactive), the GI50 (MCF7) was > 100 µM (inactive) and the GI50 (A549) was > 100 µM (inactive). The GI50 (CAKI-1) was > 100 µM (inactive), the GI50 (NCI-H23) was > 100 µM (inactive) and the GI50 (LOX IMVI) was > 100 µM (inactive). For the same compound, the GI50 (NCI/ADR-RES) was > 100 µM (inactive), the GI50 (HCT-15) was greater than 100 µM and the GI50 (MDA-MB-435) was > 100 µM (inactive). The GI50 (DU-145) was > 100 µM (inactive), the GI50 (TK-10) was > 100 µM (inactive) and the GI50 (SN12C) was > 100 µM (inactive). The GI50 (UACC-62) was > 100 µM (inactive), the GI50 (Hs-578T) was > 100 µM (inactive) and the GI50 (KM12) was > 100 µM (inactive). The GI50 (SNB-75) was > 100 µM (inactive), the GI50 (786-0) was > 100 µM (inactive) and the GI50 (SK-MEL-2) was > 100 µM (inactive). For the same compound, the GI50 (SK-OV-3) was > 100 µM (inactive), the GI50 (RXF 393) was > 100 µM (inactive) and the GI50 (HCT-116) was > 100 µM (inactive). For the same compound, the GI50 (PC-3) was > 100 µM (inactive), the GI50 (UO-31) was > 100 µM (inactive) and the GI50 (SK-MEL-28) was > 100 µM (inactive). The GI50 (M14) was > 100 µM (inactive), the GI50 (A498) was > 100 µM (inactive) and the GI50 (ACHN) was > 100 µM (inactive). The GI50 (MDA-MB-231) was > 100 µM (inactive), the GI50 (HOP-92) was > 100 µM (inactive) and the GI50 (HOP-62) was > 100 µM (inactive). The GI50 (U-251) was > 100 µM (inactive), the GI50 (SF-295) was > 100 µM (inactive) and the GI50 (K562) was > 100 µM (inactive). For the same compound, the GI50 (SW-620) was > 100 µM (inactive), the GI50 (SNB-19) was > 100 µM (inactive) and the GI50 (OVCAR-3) was > 100 µM (inactive). For the same compound, the GI50 (OVCAR-8) was > 100 µM (inactive) and the GI50 (IGROV-1) was > 100 µM (inactive).
`Cc1nc2ccc(NC3OCC(O)C(O)C3O)cc2c(=O)n1-c1ccccc1` (centres undefined) was tested, and the GI50 (NCI-H460) was > 100 µM (inactive), the GI50 (SF-268) was > 100 µM (inactive) and the GI50 (SK-MEL-5) was > 100 µM (inactive). For the same compound, the GI50 (OVCAR-4) was > 100 µM (inactive), the GI50 (NCI-H522) was > 100 µM (inactive) and the GI50 (HCC 2998) was > 100 µM (inactive). The GI50 (RPMI-8226) was > 100 µM (inactive), the GI50 (NCI-H226) was > 100 µM (inactive) and the GI50 (Malme-3M) was > 100 µM (inactive). The GI50 (T47D) was > 100 µM (inactive), the GI50 (EKVX) was > 100 µM (inactive) and the GI50 (MOLT-4) was > 100 µM (inactive). The GI50 (OVCAR-5) was > 100 µM (inactive), the GI50 (HL-60) was 49.7 µM (inactive) and the GI50 (MDA-N) was > 100 µM (inactive). The GI50 (BT-549) was > 100 µM (inactive), the GI50 (UACC-257) was > 100 µM (inactive) and the GI50 (SR) was > 100 µM (inactive). The GI50 (HT-29) was > 100 µM (inactive), the GI50 (MCF7) was > 100 µM (inactive) and the GI50 (CAKI-1) was > 100 µM (inactive). For the same compound, the GI50 (NCI-H23) was > 100 µM (inactive), the GI50 (LOX IMVI) was > 100 µM (inactive) and the GI50 (NCI/ADR-RES) was > 100 µM (inactive). The GI50 (HCT-15) was greater than 100 µM, the GI50 (MDA-MB-435) was > 100 µM (inactive) and the GI50 (DU-145) was > 100 µM (inactive). The GI50 (TK-10) was > 100 µM (inactive), the GI50 (SN12C) was > 100 µM (inactive) and the GI50 (UACC-62) was > 100 µM (inactive). For the same compound, the GI50 (Hs-578T) was > 100 µM (inactive), the GI50 (KM12) was > 100 µM (inactive) and the GI50 (SNB-75) was > 100 µM (inactive). For the same compound, the GI50 (786-0) was > 100 µM (inactive), the GI50 (SK-MEL-2) was > 100 µM (inactive) and the GI50 (RXF 393) was > 100 µM (inactive). For the same compound, the GI50 (HCT-116) was > 100 µM (inactive), the GI50 (PC-3) was > 100 µM (inactive) and the GI50 (UO-31) was > 100 µM (inactive). For the same compound, the GI50 (COLO 205) was > 100 µM (inactive), the GI50 (SK-MEL-28) was > 100 µM (inactive) and the GI50 (A498) was > 100 µM (inactive). For the same compound, the GI50 (ACHN) was > 100 µM (inactive), the GI50 (MDA-MB-231) was > 100 µM (inactive) and the GI50 (HOP-62) was > 100 µM (inactive). The GI50 (U-251) was > 100 µM (inactive), the GI50 (SF-295) was > 100 µM (inactive) and the GI50 (K562) was > 100 µM (inactive). The GI50 (SW-620) was > 100 µM (inactive), the GI50 (SNB-19) was > 100 µM (inactive) and the GI50 (OVCAR-3) was > 100 µM (inactive). The GI50 (OVCAR-8) was > 100 µM (inactive) and the GI50 (IGROV-1) was > 100 µM (inactive).
In the case of `CC(C)CNC(=O)O`, the GI50 (NCI-H460) was > 100 µM (inactive), the GI50 (SF-268) was > 100 µM (inactive) and the GI50 (SK-MEL-5) was > 100 µM (inactive). For the same compound, the GI50 (OVCAR-4) was > 100 µM (inactive), the GI50 (NCI-H522) was > 100 µM (inactive) and the GI50 (RPMI-8226) was > 100 µM (inactive). The GI50 (NCI-H226) was > 100 µM (inactive), the GI50 (Malme-3M) was > 100 µM (inactive) and the GI50 (T47D) was > 100 µM (inactive). The GI50 (EKVX) was > 100 µM (inactive), the GI50 (MOLT-4) was > 100 µM (inactive) and the GI50 (OVCAR-5) was > 100 µM (inactive). The GI50 (HL-60) was > 100 µM (inactive), the GI50 (MDA-N) was > 100 µM (inactive) and the GI50 (BT-549) was > 100 µM (inactive). The GI50 (UACC-257) was > 100 µM (inactive), the GI50 (SR) was > 100 µM (inactive) and the GI50 (HT-29) was > 100 µM (inactive). For the same compound, the GI50 (MCF7) was > 100 µM (inactive), the GI50 (A549) was > 100 µM (inactive) and the GI50 (CAKI-1) was > 100 µM (inactive). For the same compound, the GI50 (NCI-H23) was > 100 µM (inactive), the GI50 (LOX IMVI) was > 100 µM (inactive) and the GI50 (NCI/ADR-RES) was > 100 µM (inactive). The GI50 (HCT-15) was greater than 100 µM, the GI50 (MDA-MB-435) was > 100 µM (inactive) and the GI50 (DU-145) was > 100 µM (inactive). For the same compound, the GI50 (TK-10) was > 100 µM (inactive), the GI50 (SN12C) was > 100 µM (inactive) and the GI50 (UACC-62) was > 100 µM (inactive). For the same compound, the GI50 (CCRF-CEM) was > 100 µM (inactive), the GI50 (Hs-578T) was > 100 µM (inactive) and the GI50 (KM12) was > 100 µM (inactive). For the same compound, the GI50 (SNB-75) was > 100 µM (inactive), the GI50 (786-0) was > 100 µM (inactive) and the GI50 (SK-MEL-2) was > 100 µM (inactive). For the same compound, the GI50 (SK-OV-3) was > 100 µM (inactive), the GI50 (RXF 393) was > 100 µM (inactive) and the GI50 (HCT-116) was > 100 µM (inactive). The GI50 (PC-3) was > 100 µM (inactive), the GI50 (UO-31) was > 100 µM (inactive) and the GI50 (COLO 205) was > 100 µM (inactive). For the same compound, the GI50 (SK-MEL-28) was > 100 µM (inactive), the GI50 (M14) was > 100 µM (inactive) and the GI50 (A498) was > 100 µM (inactive). The GI50 (ACHN) was > 100 µM (inactive), the GI50 (MDA-MB-231) was > 100 µM (inactive) and the GI50 (HOP-92) was > 100 µM (inactive). For the same compound, the GI50 (HOP-62) was > 100 µM (inactive), the GI50 (U-251) was > 100 µM (inactive) and the GI50 (SF-295) was > 100 µM (inactive). For the same compound, the GI50 (K562) was > 100 µM (inactive), the GI50 (SW-620) was > 100 µM (inactive) and the GI50 (SNB-19) was > 100 µM (inactive). For the same compound, the GI50 (OVCAR-3) was > 100 µM (inactive), the GI50 (SF-539) was > 100 µM (inactive) and the GI50 (OVCAR-8) was > 100 µM (inactive). The GI50 (IGROV-1) was > 100 µM (inactive).
